The record followed here is patent publication US8754095B2, “Substituted N-heterocycloalkyl bipyrrolidinylphenyl amide derivatives, preparation and therapeutic use thereof” (Sanofi, priority 2010, dated 2014).

Counter-ions that a name gives are not always drawn.

One data set deals with Mouse H3 (Mus musculus, UniProt P58406). Kind of data set: Mouse H3 radioligand binding assay. The note with it: similar procedure as rhesus binding. The procedure: (§1) Rhesus H3 radioligand binding assay was performed using rhesus H3 receptor membranes (prepared as described above), [3H]-Methylhistamine (Perkin Elmer) and WGA SPA beads (wheat germ agglutinin scintillation proximity assay) beads (Amersham). The assay was performed in 96-well Opti-Plates (Packard). Each reaction contained 50 μl rhesus H3 membranes (20-30 μg total protein), 50 μl WGA SPA beads (0.1 μg) and 50 μl of 83 Ci/mmol [^3H]-Methylhistamine (final concentration 2 nM) and 50 μl of tested compound. The compounds of this invention and/or vehicle were diluted with binding buffer from 10 mM DMSO stocks. Assay plates were sealed with TopSeal (Perkin Elmer) and mixed on shaker (25° C., 1 hour). Assay plates were read on TopCount scintillation counter (Packard). Results were analyzed by Hill transformation and Ki values were determined by Cheng-Prusoff equation. Similar procedures were employed to determine the binding data for rat and mouse.
Mouse H3, sequence (P58406 whole entry): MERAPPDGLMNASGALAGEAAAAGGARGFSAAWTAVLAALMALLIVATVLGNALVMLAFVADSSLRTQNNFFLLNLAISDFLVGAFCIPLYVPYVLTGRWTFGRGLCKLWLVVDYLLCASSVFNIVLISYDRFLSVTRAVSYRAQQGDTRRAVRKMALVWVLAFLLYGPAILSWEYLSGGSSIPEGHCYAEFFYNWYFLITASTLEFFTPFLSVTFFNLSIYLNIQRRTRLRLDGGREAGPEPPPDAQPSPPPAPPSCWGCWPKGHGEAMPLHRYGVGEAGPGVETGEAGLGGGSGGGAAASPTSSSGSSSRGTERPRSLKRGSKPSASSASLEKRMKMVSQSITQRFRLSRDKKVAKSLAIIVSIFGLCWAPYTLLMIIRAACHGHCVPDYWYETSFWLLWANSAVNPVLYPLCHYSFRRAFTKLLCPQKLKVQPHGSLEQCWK

The target in data set [1] is T1, rhesus (Macacca Mulatta) H3 receptor (Macaca mulatta, UniProt Q865E1).
T1 construct: pcDNA5/FRT/TO (Invitrogen) containing the rhesus monkey (Macacca Mulatta) 445 amino acid H3 receptor
T1 sequence (Q865E1 1-445): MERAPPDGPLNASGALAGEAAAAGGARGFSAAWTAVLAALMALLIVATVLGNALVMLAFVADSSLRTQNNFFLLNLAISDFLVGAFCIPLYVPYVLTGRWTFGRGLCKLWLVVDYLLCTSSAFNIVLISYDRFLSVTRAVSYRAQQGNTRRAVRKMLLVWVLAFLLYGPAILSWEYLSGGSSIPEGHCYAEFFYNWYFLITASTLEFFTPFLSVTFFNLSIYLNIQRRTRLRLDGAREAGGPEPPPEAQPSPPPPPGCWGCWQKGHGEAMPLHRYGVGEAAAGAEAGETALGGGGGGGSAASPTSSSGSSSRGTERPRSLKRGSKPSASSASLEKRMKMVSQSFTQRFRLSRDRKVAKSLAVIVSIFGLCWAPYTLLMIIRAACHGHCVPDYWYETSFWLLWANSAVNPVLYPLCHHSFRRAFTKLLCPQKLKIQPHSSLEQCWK
The data set can be described thus: Rhesus H3 [3H]-Methylhistamine radioligand binding assay. Also noted: species or system rhesus monkey (Macacca Mulatta). The note with it: displacement of [3H]-Methylhistamine (2 nM), rhesus H3 membranes, Cheng-Prusoff. The procedure:
Rhesus H3 membranes were prepared from the Flp-In T-REx 293 Cell Line (Invitrogen) stably transfected with pcDNA5/FRT/TO (Invitrogen) containing the rhesus monkey (Macacca Mulatta) 445 amino acid H3 receptor. (Genbank #AY231164). Stably transfected cultures were amplified in tissue culture flasks by standard tissue culture methods and induced to express rhesus H3 by exposure to 500 ng/ml tetracycline (Cellgro) for 24 hours. After induction, cells were dissociated from flasks utilizing Cell Stripper (Cellgro). Cells were centrifuged (1 K×g, 5 min) and pellet frozen in an ethanol-dry ice bath to disrupt cell membranes. Frozen cell pellet was re-suspended in 5 mM HEPES (pH 7.4, Invitrogen) at 10 ml/1000 cm2 of harvested cells. The cell suspension was drawn through an 18 gauge needle (2-3×) followed by a 23 gauge needle (2-3×) to further disrupt cell membranes. The cell suspension was centrifuged (40K×g, 30 min). Cell membrane pellet was re-suspended in 5 mM HEPES (pH 7.4, Invitrogen) at a final protein concentration of 10 mg/ml. Rhesus H3 membranes were stored under liquid nitrogen prior to use in [3]-Methylhistamine and GTPγS radioligand binding assays.
as §1

The next data set deals with Rat H3 (Rattus norvegicus, UniProt Q9QYN8). The data set can be described thus: Rat H3 radioligand binding assay. As to conditions: similar procedure as rhesus binding. The procedure:
as §1

The next data set relates to Rats. The data set can be described thus: Forced-Swimming Test in Rats. In kind it is in vivo. As to conditions: rat, p.o. twice, 5-min test. The procedure: This example further illustrates the study of efficacy of the compounds of this invention as antidepressive agents in animal models.
The procedure was a modification of that described by Porsolt et al. (1977) Depression: a new animal model sensitive to antidepressant treatments. Nature 266:730-2. Rats were placed in individual glass cylinder (40 cm height, 18 cm diameter) containing water (22-25° C.) to a height of 15 cm. Two swimming sessions were conducted (a 15-min training session followed 24 h later by a 5-min test). After each swimming session, rats were placed under a heating lamp to avoid hypothermia. The duration of immobility was measured during the 5-min test.
Example 1 of this invention was administered p.o. twice (15 min pre-test followed by first injection 24 h prior to 5 min test) at a dosage of 10 mg/kg.
Example 2 of this invention was administered p.o. twice (15 min pre-test followed by first injection 24 h prior to 5 min test) at a dosage levels of 0.1, 1, and 10 mg/kg.

Rat H3, sequence (Q9QYN8 whole entry): as the sequence (P58406 whole entry) above, with A15T, T286A, G290A, H387R, V389I counted along it

`C[C@H]1CCCN1[C@H]1CCN(c2ccc(C(=O)NC3CCOCC3)cc2)C1` [Example 3, 4-((2S,3′S)-2-Methyl-[1,3′]bipyrrolidinyl-1′-yl)-N-(tetrahydro-pyran-4-yl)-benzamide] had a melting point of 180 °C. The molecule also returned an inhibitory constant (Ki) on Mouse H3 of 10.1 nM. For the same molecule, in data set [1], the inhibition constant Ki amounted to 1.98 nM. This molecule also registered an inhibitory constant (Ki) on Rat H3 of 15 nM.
With `C[C@H]1CCCN1[C@H]1CCN(c2ccc(CC(=O)NC3CCN(C(=O)OC(C)(C)C)CC3)cc2)C1` [Example 6], the results for the Ki (in data set [1]; at Rat H3) were 2.75 nM and 19.4 nM, respectively.
Taken in the same sequence, the figures for `CCOC(=O)N1CCC(NC(=O)Cc2ccc(N3CC[C@H](N4CCC[C@@H]4C)C3)cc2)CC1` [Example 8, 4-{2-[4-((2S,3′S)-2-Methyl-[1,3′]bipyrrolidinyl-1′-yl)-phenyl]-acetylamino}-piperidine-1-carboxylic acid ethyl ester] were 1.59 nM and 8.25 nM.
In the case of `C[C@H]1CCCN1[C@H]1CCN(c2ccc3cc(C(=O)NC4CCOCC4)ccc3c2)C1` [Example 2, 6-((2S,3′S)-2-Methyl-[1,3′]bipyrrolidinyl-1′-yl)-naphthalene-2-carboxylic acid (tetrahydro-pyran-4-yl)amide], the results for the Ki (on Mouse H3; in data set [1]; at Rat H3) were 19.6 nM, 2.99 nM and 9.79 nM, respectively. Also, the “activity in forced-swimming test (duration of immobility)” value in the data set with Rats (0.1 mg/kg), in the data set on Rats (1 mg/kg) and with Rats (10 mg/kg) was “active” each time.
Take `C[C@H]1CCCN1[C@H]1CCN(c2ccc(CC(=O)NC3CCN(CC4CCCC4)CC3)cc2)C1` [Example 9, N-(1-Cyclopentylmethyl-piperidin-4-yl)-2-[4-((2S,3′S)-2-methyl-[1,3′]bipyrrolidinyl-1′-yl)-phenyl]-acetamide]: the figures for the Ki (in data set [1]; at Rat H3) were 0.69 nM and 1.26 nM, respectively.
In turn, `Cc1cc(N2CC[C@H](N3CCC[C@@H]3C)C2)ccc1C(=O)NC1CCOCC1` [Example 4, 2-Methyl-4-((2S,3′S)-2-methyl-[1,3′]bipyrrolidinyl-1′-yl)-N-(tetrahydro-pyran-4-yl)-benzamide] returned a melting point of 147 °C. On Mouse H3, the Ki came to 12.1 nM. Besides, the affinity in data set [1], expressed as Ki, was 1.52 nM. For the same molecule, the inhibition constant Ki at Rat H3 was 19.7 nM.
For the molecule `CNC(=O)C1CCN(Cc2ccc(N3CC[C@H](N4CCC[C@@H]4C)C3)cc2)CC1` [Example 10, 1-[4-((2S,3′S)-2-Methyl-[1,3′]bipyrrolidinyl-1′-yl)-benzyl]-piperidine-4-carboxylic acid methylamide; hydrochloride], the values for the Ki (on Mouse H3; in data set [1]; at Rat H3) were 4.4 nM, 0.466 nM and 0.929 nM, respectively.
In the case of `C[C@H]1CCCN1[C@H]1CCN(c2ccc(CC(=O)NC3CCOCC3)cc2)C1` [Example 1, 2-[4-((2S,3′S)-2-Methyl-[1,3′]bipyrrolidinyl-1′-yl)-phenyl]-N-(tetrahydro-pyran-4-yl)-acetamide], the Ki worked out at 10.8 nM at Mouse H3, 2.5 nM in data set [1] and 8.32 nM at Rat H3. For the same molecule, in the data set with Rats (10 mg/kg), the “activity in forced-swimming test (duration of immobility)” value is recorded as “active”.
As for `C[C@H]1CCCN1[C@H]1CCN(c2ccc(CC(=O)NC3CCNCC3)cc2)C1` [Example 7, 2-[4-((2S,3′S)-2-Methyl-[1,3′]bipyrrolidinyl-1′-yl)-phenyl]-N-piperidin-4-yl-acetamide hydrochloride], the Ki in data set [1] is 0.804 nM; at Rat H3, 1.12 nM.
For `C[C@H]1CCCN1[C@H]1CCN(c2ccc(C(=O)NCC3CCOCC3)cc2)C1` [Example 5, 4-((2S,3′S)-2-Methyl-[1,3′]bipyrrolidinyl-1′-yl)-N-(tetrahydro-pyran-4-ylmethyl)-benzamide], the Ki on Mouse H3 came out at 40.3 nM; in data set [1] it was 1.24 nM; at Rat H3, 19.1 nM.
